Experimental data as given in PMC10454375, “Cell-Impermeable Inhibitors Confirm That Intracellular Human Transglutaminase 2 Is Responsible for the Transglutaminase-Associated Cancer Phenotype” (International Journal of Molecular Sciences, 2023).
Peptide text beside a SMILES is read from it. * marks the point of attachment. X1 = C=CC(=O)NCCCCC(NC(=O)OCc1ccccc1)C(=O)N1CCN(C(=O)C(CCC(=O)*)NC(=O)c2cccc3ccccc23)CC1

Tests used:
MDA-MB-436 cells [1] = test: Cell proliferation assay, MDA-MB-436; type: cell-based; conditions: concentrations up to 100 µM, 48 h
Description: (§1) MDA-MB-468 cells were cultured in Dulbecco’s Modified Eagle Medium (DMEM)/F-12 DMEM, Gibco Laboratories, New York, NY, USA), 10% FBS (Gibco Laboratories, New York, NY, USA), 50 U/mL penicillin, and 50 μg/mL streptomycin (Gibco Laboratories, New York, NY, USA), while MDA-MB-231 and MDA-MB-436 cells were cultured in DMEM High Glucose with/stable L-Glutamine (EuroClone, Pero, MI, Italy), 10% FBS, and antibiotics, all grown at 37 °C and in 5% CO2 humidified atmosphere.
(§2) The compounds were added to the cultures at the concentrations of 25, 50, 75, and 100 μM and 0.1% DMSO represented the negative control. After 48 h, the cells were trypsinized for 2 min at 37 °C, trypsin was inactivated using 1 mL of the recovered supernatants (containing 10% FBS), centrifuged at room temperature 5 min at 1200 rpm, washed with PBS and resuspended in complete medium. Finally, 50 μL of cells were diluted in 500 μL of Count & Viability Reagent (Luminex, Prodotti Gianni, Milan, Italy) and analyzed by MUSE®.
The experiments were carried out in triplicate and the average ± SD of the percentage of living cells was reported. […]
Figure 4 Treatment of cancer cells with cell-permeable and cell-impermeable inhibitors. […] NCEG-RHB localization is detected adjacent to the nuclei (N) in both cell types and is indicated by red arrows. […]

MDA-MB-468 cells = test: Cell proliferation assay, MDA-MB-468; type: cell-based; conditions: concentrations up to 100 µM, 48 h
Description: as §1, §2
The experiments were carried out in triplicate and the average ± SD of the percentage of living cells was reported. Statistical analysis was performed calculating p value by a Student’s t-test, two-tailed, with homovariance and significance expressed by (*) p value < 0.05.
Supplementary cellular evaluation figures
Concentration (µM) Concentration (µM)
Figure S10. […]

HaCaT cells = test: Cell proliferation, HaCaT; type: cell-based, human; conditions: concentrations up to 100 µM
Description: (§3) Figure 4 Treatment of cancer cells with cell-permeable and cell-impermeable inhibitors. (A) HaCaT and SCC-13 are epidermis-derived cutaneous squamous cell carcinoma cells that were treated for 10 h with NCEG-RHB prior to imaging using a spinning disc confocal microscope. NCEG-RHB localization is detected adjacent to the nuclei (N) in both cell types and is indicated by red arrows. The HaCaT cell cultures were also stained for 15 min with MitoTracker Green before imaging. MitoTracker Green detects mitochondria membrane proteins inside the cell and the labelling is indicated by green arrows. White scale bars = 100 µm. (B) SCC-13 cells treated with cell-impermeable inhibitor 18 (NCEG2) and cell-permeable inhibitors NC9, AA9, and NCEG-RHB. Scale bars represent 50 µm; (*) p value < 0.001 (C) HaCaT cells treated with cell-impermeable inhibitor 18 (NCEG2) and cell-permeable inhibitors NC9 and AA9. Scale bars represent 50 µm; (*) p value < 0.001. (D) MDA-MB-436 cells treated with cell-impermeable 18 (NCEG2) and with cell-permeable inhibitors NC9, AA9 and NCEG-RHB. Experiments were carried out in triplicate and are represented as average ± SD of the percentage of living cells; (**) p value < 0.01.

SCC-13 cells = test: Cell proliferation, SCC-13; type: cell-based, human; conditions: concentrations up to 100 µM
Description: as §3

MDA-MB-436 cells [2] = test: Real-time cell migration assay (xCELLigence RTCA), MDA-MB-436; type: cell-based; conditions: 25 µM, 24 h
Description: (§4) We assayed the motility of MDA-MB-436 cells in the presence of vehicle or TG2 inhibitors 18 (NCEG2), 19 (NCEG-RHB), and NC9 at 25 μM concentration with the xCELLigence RTCA system (Real-Time Cell Analyzer System, Acea Biosciences Inc., San Diego, CA, USA). About 3 × 10^5 cells/wells were put into the top chambers of CIM-16 plates and the bottom chambers were filled with medium containing 5% FBS (Gibco Laboratories, New York, NY, USA) as a chemoattractant. Signal detection was done every 15 min for 24 h and each determination was performed in triplicate. Impedance values were expressed as a dimensionless parameter (Cell Index, CI), and values greater than 0.1 were considered positive. The rate of cell migration was also quantified by calculating the steepness, inclination, gradient, and changing rate of the CI curves over time (Slope).
(§5) A Vehicle B 0.025 Vehicle
(§6) C 2.5 Vehicle D 0.15 Vehicle
(§7) Figure S11. Migration assay: A) Dynamic monitoring of the migration of MDA-MB-436 cells.
(§8) We recorded for 24 hours the migration of the cells in the presence only of the vehicle or of the indicated TG2 inhibitors, used at 25 µM concentrations. Data are reported as Cell Index (CI) values ± SD. […] We recorded for 24 hours the migration of the cells in the presence only of the vehicle or of the indicated TG2 inhibitors, used at 25 µM concentrations. […]

MDA-MB-231 cells = test: Real-time cell migration assay (xCELLigence RTCA), MDA-MB-231; type: cell-based; conditions: 25 µM, 24 h
Description: as §4, §5, §6, §7, §8

C=CC(=O)NCCCCC(NC(=O)OCc1ccccc1)C(=O)N1CCN(C(=O)C(CCC(=O)NCC(=O)NCC(=O)NCC(=O)NC(CC(=O)O)C(=O)NC(CC(=O)O)C(=O)NC(CC(=O)O)C(=O)O)NC(=O)c2cccc3ccccc23)CC1 (stereo not drawn) [Compound 18] (X1-GGGDDD-OH; configuration not given here)
effect on cell proliferation (MDA-MB-436 cells [1]): did not have any effect on cell proliferation
effect on cell proliferation (MDA-MB-468 cells): did not have any effect on cell proliferation
effect on cell proliferation (HaCaT cells): did not have any effect on cell proliferation
effect on cell proliferation (SCC-13 cells): did not have any effect on cell proliferation
effect on cell migration (MDA-MB-436 cells [2]): failed to suppress migration
effect on cell migration (MDA-MB-231 cells): failed to suppress migration
